Earlier results as cited in patent publication US20170209576A1, “DELIVERY COMPOSITIONS AND METHODS” (REGENTS OF THE UNIVERSITY OF MINNESOTA, priority 2014, published 2017).

How the values were obtained:
[1] = aqueous solution
[2] = micropipette techniques

1,2-Distearoyl-sn-glycero-3-phosphoethanolamine (DSPE)-PEG^2000 [DSPE-PEG^2000]
critical micelle concentration (CMC) [1]: 5.8 µM

CCCCCCCCCCCCCCCC(=O)OCC(COP(=O)(O)OCCN)OC(=O)CCCCCCCCCCCCCCC (stereo not shown) [DPPE, dipalmitoylphosphatidylethanolamine]
pKa of terminal amine group: 9.8

CCCCCCCCCCCCCCCC(=O)OC[C@@H](O)COP(=O)([O-])OCC[N+](C)(C)C [MPPC, monopalmitoyl phosphatidyl choline]
critical micelle concentration (CMC) [1]: 4 µM | rate of adsorption of monomers into the outer bilayer leaflet [2]: 0.2 s⁻¹
